Assay results: PubChem BioAssay AID1645866 (Buhrlage Lab, Dana-Farber Cancer Institute and Novartis …, 2021)
Calls of active or inactive are those of the source.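 How the source made its calls: active means in confirmatory dose-response testing, peak deubiquitinase inhibition of 30% or more; inactive means the rest.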

Molecular target: Ubiquitin carboxyl-terminal hydrolase 28 (Homo sapiens) (UniProt Q96RU2)
Assay: Ubiquitin-specific peptidase 28 DUB inhibitors, biochemical concentration-dependence assay, validation of primary screening hits (AID 1645866)
Details: purified USP28, ubiquitin-rhodamine fluorescence, 30 min

Chain of Ubiquitin carboxyl-terminal hydrolase 28 (Homo sapiens) (Q96RU2 whole entry, looked up): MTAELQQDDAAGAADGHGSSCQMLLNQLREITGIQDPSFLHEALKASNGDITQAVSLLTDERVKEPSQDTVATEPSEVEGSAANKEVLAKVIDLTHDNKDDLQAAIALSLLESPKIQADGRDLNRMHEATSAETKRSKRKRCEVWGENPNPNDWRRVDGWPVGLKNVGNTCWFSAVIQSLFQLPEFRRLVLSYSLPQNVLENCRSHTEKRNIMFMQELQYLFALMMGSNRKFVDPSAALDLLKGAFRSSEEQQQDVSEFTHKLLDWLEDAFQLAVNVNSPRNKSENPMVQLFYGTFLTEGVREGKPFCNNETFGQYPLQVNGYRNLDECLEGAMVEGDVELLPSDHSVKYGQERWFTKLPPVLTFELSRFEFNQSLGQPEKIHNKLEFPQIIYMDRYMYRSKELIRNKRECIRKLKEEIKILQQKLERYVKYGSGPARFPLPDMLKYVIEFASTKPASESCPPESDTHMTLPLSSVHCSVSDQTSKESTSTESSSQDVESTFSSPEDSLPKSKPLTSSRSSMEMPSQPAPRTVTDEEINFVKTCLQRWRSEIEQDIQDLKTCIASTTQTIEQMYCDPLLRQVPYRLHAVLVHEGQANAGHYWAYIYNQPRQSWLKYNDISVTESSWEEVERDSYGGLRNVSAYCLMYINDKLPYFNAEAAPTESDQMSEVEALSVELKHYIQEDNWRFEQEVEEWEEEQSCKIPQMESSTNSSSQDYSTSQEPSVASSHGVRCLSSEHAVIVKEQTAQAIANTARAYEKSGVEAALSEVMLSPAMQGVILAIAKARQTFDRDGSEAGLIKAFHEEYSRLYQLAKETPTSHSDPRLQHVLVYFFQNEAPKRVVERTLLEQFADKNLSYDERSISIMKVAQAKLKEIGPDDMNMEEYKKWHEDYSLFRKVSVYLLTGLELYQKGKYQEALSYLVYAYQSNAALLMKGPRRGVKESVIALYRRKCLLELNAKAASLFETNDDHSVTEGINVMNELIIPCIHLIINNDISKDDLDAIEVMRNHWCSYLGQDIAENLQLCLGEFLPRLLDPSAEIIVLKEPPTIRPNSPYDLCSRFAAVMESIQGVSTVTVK

Compound	IC50
Cc1cccc(CNC(=O)c2ccc(-c3nnc(-c4cccc(C)c4)o3)cc2)c1	17.7 µM
O=C(NCCc1ccccc1)c1nnn(Cc2cccc(Cl)c2)c1-n1cccc1	1.37 µM
Cc1ccc2c(c1)[C@]1(C(=O)N2)[C@@H](C(=O)c2ccccc2)[C@]2(C(=O)Nc3ccccc32)[C@@H]2CCCN21	23.3 µM
COc1cccc2cc(C(=O)Nc3nc(-c4ccncc4)cs3)oc12	0.647 µM
CC1=C2C(=NCCN1)C(=O)N(c1ccccc1)C2c1cccnc1 (centres undefined)	> 50 µM (inactive)
COc1cc(=O)c(C(=O)Nc2ccc(C#N)cc2)nn1-c1cccc(F)c1	20.7 µM
Cc1c(-c2nc(-c3ccccc3Cl)no2)nnn1-c1cccc(F)c1	14.2 µM
Cc1cccc(NC(=O)Cn2c(=O)n(Cc3ccc(F)cc3)c(=O)c3sccc32)c1	7 µM
CCn1cc(-c2nc(-c3ccccc3)no2)c(=O)c2cc(F)ccc21	7.65 µM
CC1CC(=O)N(Cc2ccc([N+](=O)[O-])cc2)c2ccccc2S1 (centres undefined)	13.3 µM
Cc1ccc(NC(=O)Cn2c(-n3nc(C)cc3C)nc3c(c2=O)CCCC3)c(C)c1	35.8 µM
COc1ccc(-n2nnc(C(=O)Nc3ccccc3)c2N)cc1	> 50 µM (inactive)
O=S(=O)(Nc1ccc2oc(-c3ccncc3)nc2c1)c1ccccc1	40.8 µM
O=C(NCc1ccccc1Cl)c1ccc2cn[nH]c2c1	10.1 µM
CCCc1nc2sc3c(NCCCN4CCOCC4)ncnc3c2c2c1CCC2	0.743 µM
O=C(NCc1cccnc1)c1cnn2c(C(F)(F)F)cc(-c3ccc(F)cc3)nc12	47.4 µM
Cc1cc(=O)n(CC(=O)Nc2ccccc2F)c(Nc2ccc(F)cc2)n1	14.3 µM
Cc1nc(N2CCCC2)ncc1C(=O)Nc1ccc(F)c(F)c1	32.9 µM
COc1ccc(/C=C/C(=O)Nc2c3c(nc4c2CCC4)CCCC3)cc1	12.1 µM
COc1ccc(Cn2c(=O)[nH]c3cc(C(=O)NCCCN4CCN(c5cccc(Cl)c5)CC4)ccc3c2=O)cc1	3.43 µM
COC(=O)[C@]1(O)O[C@@]2(C(=O)OC)c3c(oc4cc(C)cc(O)c4c3=O)[C@H]3c4c(oc5cc(C)cc(O)c5c4=O)C[C@H]1[C@H]32	> 50 µM (inactive)
O=C(Nc1ccc2nccnc2c1)c1cccc(C(F)(F)F)c1	33.6 µM
Cc1ccc(NC(=O)/C=C/c2cccc(C(F)(F)F)c2)c(O)c1	16.2 µM
COc1cccc(-n2c(=O)[nH]c3c(C(N)=O)nc(-c4ccc(OCc5ccccc5)cc4)nc32)c1	> 50 µM (inactive)
COc1cccc(NC(=O)Nc2ccc(NC(C)=O)cc2)c1	4.04 µM
O=[N+]([O-])c1ccc2c(c1)nc1n2CCN(Cc2ccco2)C1	> 50 µM (inactive)
Cc1ccc(CN2CCCn3nc(C(=O)NCc4ccccc4C)cc3C2=O)cc1	45.2 µM
Cc1ccc(-n2cc3c(N4CCCC(C(=O)NCC5CCCCC5)C4)ncnc3n2)cc1 (centres undefined)	> 50 µM (inactive)

Next, values leading:

IC50	Compound
6.27 µM	c1ccc(-c2ccc(NCc3ccc4c(c3)OCO4)nn2)cc1
2.67 µM	COc1ccc(NC(=O)Cn2cc(C(=O)c3ccc(C)cc3)c(=O)c3ccccc32)cc1
35.7 µM	COc1ccc(CCNC(=O)CCCn2c(SCC(=O)NCc3ccco3)nc3ccccc3c2=O)cc1OC
2.76 µM	COc1cc(Cn2cnc3c([nH]c4ccc(Br)cc43)c2=O)cc(OC)c1
34.8 µM	O=C(CSc1nnc2n1CCCCC2)Nc1ccc2[nH]c(=O)[nH]c2c1
> 50 µM (inactive)	O=S1(=O)CCN(Cc2c(F)cccc2F)c2c(F)nc(N3CCOCC3)c(F)c21
1.49 µM	Cc1cc(NC(=O)c2nnn(-c3ccccc3Cl)c2C)no1
26.5 µM	CCOC(=O)c1nc(Nc2ccc(OC)c(Cl)c2)c2ccccc2n1
16.1 µM	Cc1ccc(NC(=O)c2sc3ncn(CC(=O)N4CCN(c5ccccn5)CC4)c(=O)c3c2C)c(Br)c1
40.5 µM	CC(=O)c1ccc(NC(=O)/C(=C/c2ccco2)n2nnnc2-c2ccccc2)cc1
3.32 µM	Cc1ccc(C(=O)Nc2ccc(S(=O)(=O)N3CCCC3)cc2)cc1Br
> 50 µM (inactive)	COc1cccc(NC(=O)C2Cn3ccnc3C3(CCN(C(C)=O)CC3)O2)c1 (centres undefined)
25.3 µM	CCCC(O)CCCCCCCc1cc(O)cc(O)c1C(=O)OC(CCC)CCCCCCCc1cc(O)cc(O)c1 (centres undefined)
21.7 µM	COc1ccc(NC(=O)C2CC(=O)Nc3cc(-c4ccccc4)nn32)cc1 (centres undefined)
25.6 µM	Cc1ccccc1NC(=O)c1cc(S(=O)(=O)N2CCCCCC2)ccc1Cl
30.5 µM	Cc1ccc(-c2c(C(=O)Nc3ccc(S(N)(=O)=O)cc3)oc(=O)c3ccccc23)cc1
24.9 µM	CC(=O)Nc1cc2cc(-n3cccc3)ccc2oc1=O
18.7 µM	CC(=O)c1sc(NC(=O)/C=C/c2ccccc2)nc1-c1ccccc1
17.1 µM	CCc1nc(N2CCCC2=O)sc1C(=O)Nc1cccc(C(C)=O)c1
> 50 µM (inactive)	O=C(c1ccsc1)N1CCC2(C1)Nc1cccnc1NC2=NC1CCCC1 (centres undefined)
32.6 µM	Nc1nonc1C(=O)NCCNCc1cccc(OCc2ccc(Cl)cc2)c1
